Results on 6 molecules are retold here after US8361964B2, “Growth hormone releasing factor (GRF) analogs and uses thereof” (Theratechnologies Inc., priority 2011, dated 2013).

Where a SMILES comes first, the peptide text is derived from it.

One data set deals with T1, human GRF receptor (Homo sapiens, UniProt Q02643).
T1 construct: expressed in transfected cells; host or cells: baby hamster kidney (BHK) cells, stably transfected
T1 sequence (Q02643 23-423): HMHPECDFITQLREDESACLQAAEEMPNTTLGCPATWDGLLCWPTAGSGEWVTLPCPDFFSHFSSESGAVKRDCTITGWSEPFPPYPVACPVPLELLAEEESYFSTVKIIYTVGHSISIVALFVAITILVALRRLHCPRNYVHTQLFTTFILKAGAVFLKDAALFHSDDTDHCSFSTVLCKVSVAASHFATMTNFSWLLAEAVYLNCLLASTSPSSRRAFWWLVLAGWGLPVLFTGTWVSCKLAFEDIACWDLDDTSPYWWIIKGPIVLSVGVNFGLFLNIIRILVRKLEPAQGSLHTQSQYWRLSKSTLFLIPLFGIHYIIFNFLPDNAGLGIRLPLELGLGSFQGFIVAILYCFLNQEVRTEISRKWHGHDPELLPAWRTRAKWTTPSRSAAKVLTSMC
In words: Alkaline phosphatase (AP) assay, GHRHr agonist activity. It is filed as cell-based. The conditions noted are these: BHK cells stably expressing human GRF receptor and alkaline phosphatase reporter gene; 24 hrs stimulation; read-out: EC50 (nM) as assessed by alkaline phosphatase (AP) induction. Here is the method: The activity of representative GRF peptides was tested on baby hamster kidney (BHK) cells stably transfected to express the human GRF receptor and an alkaline phosphatase reporter gene. Cells were cultured 24 hours before stimulation, in 96-well plates, at a concentration of 0.5×10^5 cells/well. Before stimulation, cells were washed twice with DPBS and incubated 10-30 min in assay buffer (DMEM without phenol red supplemented with 20 mM HEPES and 1% heat inactivated fetal bovine serum (FBS). The dose response curve of the GRF peptides was done for 24 hrs with concentrations of peptides from 10^−5 M to 10^−11 M. Supernatant was collected and analysis of alkaline phosphatase levels was performed using the Alkaline Phosphatase detection kit from Applied Biosystems.
The in vitro activity of representative GRF analogs was tested on baby hamster kidney (BHK) cells expressing human GHRHr.
A general note: A reporter such as luciferase makes a cellular process visible.

The subject of data set [1] is Growth Hormone secretion. In words: Growth Hormone secretion in female mice after subcutaneous GRF analog. It is filed as in vivo. The conditions noted are these: female CD-1 mice; 10 μg/mouse subcutaneous; plasma 10 minutes after injection. Put shortly:
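Female CD-1 mice (20–25 g) got a subcutaneous dose of 10 μg/mouse GRF analog in 20 mM sodium acetate + 5% mannitol, pH 5. Plasma was taken by cardiac puncture 10 min after dosing into K3EDTA. GH was measured by rat/mouse GH ELISA on 20-fold diluted plasma.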

For data set [2], the system named is Growth Hormone secretion. The data set can be described thus: Growth Hormone secretion in female rats after subcutaneous GRF analog. It is filed as in vivo. As to conditions: female Sprague-Dawley rats; 10 μg/rat subcutaneous; plasma 0-60 minutes. Put shortly: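 Female Sprague-Dawley rats (250–300 g), isoflurane-anaesthetised with carotid cannula, got GRF analog 10 μg/rat s.c. in 20 mM AcONa + 5% mannitol, pH 5. Blood was drawn at 0, 10, 20, 30, 45 and 60 min (4–8 rats per group per time point). Plasma GH was measured by rat/mouse GH ELISA on 20-fold diluted samples.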

For data set [3] the following is noted: following intravenous injection in humans; cited from earlier work.

`CC[C@H](C)[C@H](NC(=O)[C@H](C)NC(=O)[C@H](CC(=O)O)NC(=O)[C@@H](C)NC(=O)[C@@H](N)Cc1ccc(O)cc1)C(=O)N[C@@H](Cc1ccccc1)C(=O)N[C@H](C(=O)N[C@@H](CC(=O)O)C(=O)N[C@@H](CO)C(=O)N[C@@H](Cc1ccc(O)cc1)C(=O)N[C@@H](CCCNC(=N)N)C(=O)N[C@@H](CCCCN)C(=O)N[C@H](C(=O)N[C@@H](CC(C)C)C(=O)N[C@@H](C)C(=O)N[C@@H](CCC(N)=O)C(=O)N[C@@H](CC(C)C)C(=O)N[C@@H](CCCCN)C(=O)N[C@@H](C)C(=O)N[C@@H](CCCNC(=N)N)C(=O)N[C@@H](CCC(N)=O)C(=O)N[C@@H](CC(=O)O)C(=O)N[C@H](C(=O)N[C@@H](CC(C)C)C(=O)N[C@@H](C)C(=O)N[C@@H](CCCNC(=N)N)C(=O)N[C@@H](C)C(=O)N[C@@H](C)C(=O)N[C@@H](CCCNC(=N)N)C(=O)N[C@@H](C)C(=O)N[C@@H](C)C(=O)N[C@@H](CCCNC(=N)N)C(N)=O)[C@@H](C)CC)C(C)C)[C@@H](C)O` [SEQ ID NO: 28, Y-a-DAIFTDSYRKVLAQLKARQDILARAARAAR-NH2] (HELM PEPTIDE1{Y.[dA].D.A.I.F.T.D.S.Y.R.K.V.L.A.Q.L.K.A.R.Q.D.I.L.A.R.A.A.R.A.A.R.[am]}$$$$V2.0): the EC50 at human GRF receptor was determined as 0.11 nM. In the data set on Growth Hormone secretion [1], the “GH levels 10 min” value amounted to 449.7 ng/mL. In the data set on Growth Hormone secretion [2], the “Mean AUC (GH Area Under the curve, GH concentration over time)” value came out at 17633 and the “Mean Cmax (ng/ml) of Growth Hormone secretion” value (“Mean Cmax (ng/ml)” for short) was 806.2 ng/mL.

As to `CC/C=C/CC(=O)N[C@@H](Cc1ccc(O)cc1)C(=O)N[C@@H](C)C(=O)N[C@@H](CC(=O)O)C(=O)N[C@@H](C)C(=O)N[C@H](C(=O)N[C@@H](Cc1ccccc1)C(=O)N[C@H](C(=O)N[C@@H](CC(=O)O)C(=O)N[C@@H](CO)C(=O)N[C@@H](Cc1ccc(O)cc1)C(=O)N[C@@H](CCCNC(=N)N)C(=O)N[C@@H](CCCCN)C(=O)N[C@H](C(=O)N[C@@H](CC(C)C)C(=O)N[C@@H](C)C(=O)N[C@@H](CCC(N)=O)C(=O)N[C@@H](CC(C)C)C(=O)N[C@@H](CCCCN)C(=O)N[C@@H](C)C(=O)N[C@@H](CCCNC(=N)N)C(=O)N[C@@H](CCC(N)=O)C(=O)N[C@@H](CC(=O)O)C(=O)N[C@@H](CC(C)C)C(=O)N[C@@H](CC(C)C)C(=O)N[C@@H](C)C(=O)N[C@@H](CCCNC(=N)N)C(=O)N[C@@H](C)C(=O)N[C@@H](C)C(=O)N[C@@H](CCCNC(=N)N)C(=O)N[C@@H](C)C(=O)N[C@@H](C)C(=O)N[C@@H](CCCNC(=N)N)C(N)=O)C(C)C)[C@@H](C)O)[C@@H](C)CC` [SEQ ID NO: 32, Trans-3-hexenoyl-YADAIFTDSYRKVLAQLKARQDLLARAARAAR-NH2] (HELM PEPTIDE1{[CC/C=C/CC(=O)[*:2]].Y.A.D.A.I.F.T.D.S.Y.R.K.V.L.A.Q.L.K.A.R.Q.D.L.L.A.R.A.A.R.A.A.R.[am]}$$$$V2.0), the concentration giving a half-maximal response (EC50) at human GRF receptor is 0.11 nM. Further, the “GH levels 10 min” value in the data set with Growth Hormone secretion [1] is 401.6 ng/mL. For the same molecule, in the data set on Growth Hormone secretion [2], the “Mean AUC (GH Area Under the curve, GH concentration over time)” value is reported as 10500 and the “Mean Cmax (ng/ml)” value is 514.8 ng/mL.

As to “Ac-YADAIFTDSYRKVLAQLSARKLLQDILSR-NH2 [SEQ ID NO: 43, Ac-YADAIFTDSYRKVLAQLSARKLLQDILSR-NH2, reference compound]”, the EC50 on human GRF receptor amounted to 0.25 nM. In addition, the “GH levels 10 min” value in the data set with Growth Hormone secretion [1] came to 277 ng/mL. For the same molecule, in the data set on Growth Hormone secretion [2], the “Mean AUC (GH Area Under the curve, GH concentration over time)” value worked out at 2128 and the “Mean Cmax (ng/ml)” value amounted to 83.6 ng/mL.

For the molecule “H-YGDAIFTDSYRKVLAQLKARQDILARAARAAR-NH2 [SEQ ID NO: 34, YGDAIFTDSYRKVLAQLKARQDILARAARAAR-NH2]”, the concentration giving a half-maximal response (EC50) at human GRF receptor is 0.2 nM. In the data set with Growth Hormone secretion [2], the “Mean AUC (GH Area Under the curve, GH concentration over time)” value was 11046 and the “Mean Cmax (ng/ml)” value came out at 539.7 ng/mL.

Turning to “H-YSDAIFTDSYRKVLAQLKARQDILARAARAAR-NH2 [SEQ ID NO: 33, YSDAIFTDSYRKVLAQLKARQDILARAARAAR-NH2]”, the EC50 on human GRF receptor worked out at 0.25 nM. Besides, in the data set with Growth Hormone secretion [2], the “Mean AUC (GH Area Under the curve, GH concentration over time)” value is recorded as 12467 and the “Mean Cmax (ng/ml)” value worked out at 499.0 ng/mL.

Turning to “Tyr-Ala-Asp-Ala-Ile-Phe-Thr-Asn-Ser-Tyr-Arg-Lys-Val-Leu-Gly-Gln-Leu-Ser-Ala-Arg-Lys-Leu-Leu-Gln-Asp-Ile-Met-Ser-Arg [hGRF(1-29)]”, in data set [3], the half-life entry is recorded as “approximately 12 min”.

One may read the EC50 as the concentration giving half of the maximal effect.
